The source of these data is patent US9394311B2, “Triazolo compounds as PDE10 inhibitors” (Hoffmann-La Roche Inc., priority 2012, dated 2016).

SMILES strings stand for the structures.

The experiment deals with human PDE10A (Homo sapiens (Human), UniProt Q9Y233). In words: human PDE10A full length Scintillation Proximity Assay (SPA). The experiment is classed as biochemical. The following applies: PDE10A full length enzyme, 50 nM cGMP / [3H]-cGMP substrate, 20 minutes at room temperature. How it is done: The following test was carried out in order to determine the activity of the compounds of the present invention. PDE10 activity of the compounds of the present invention was determined using a Scintillation Proximity Assay (SPA)-based method similar to the one previously described (Fawcett, L. et al., Proc Natl Acad Sci USA (2000) 97(7):3702-3707).
human PDE10A, sequence (Q9Y233 other isoform, or with tags, fused parts or gaps): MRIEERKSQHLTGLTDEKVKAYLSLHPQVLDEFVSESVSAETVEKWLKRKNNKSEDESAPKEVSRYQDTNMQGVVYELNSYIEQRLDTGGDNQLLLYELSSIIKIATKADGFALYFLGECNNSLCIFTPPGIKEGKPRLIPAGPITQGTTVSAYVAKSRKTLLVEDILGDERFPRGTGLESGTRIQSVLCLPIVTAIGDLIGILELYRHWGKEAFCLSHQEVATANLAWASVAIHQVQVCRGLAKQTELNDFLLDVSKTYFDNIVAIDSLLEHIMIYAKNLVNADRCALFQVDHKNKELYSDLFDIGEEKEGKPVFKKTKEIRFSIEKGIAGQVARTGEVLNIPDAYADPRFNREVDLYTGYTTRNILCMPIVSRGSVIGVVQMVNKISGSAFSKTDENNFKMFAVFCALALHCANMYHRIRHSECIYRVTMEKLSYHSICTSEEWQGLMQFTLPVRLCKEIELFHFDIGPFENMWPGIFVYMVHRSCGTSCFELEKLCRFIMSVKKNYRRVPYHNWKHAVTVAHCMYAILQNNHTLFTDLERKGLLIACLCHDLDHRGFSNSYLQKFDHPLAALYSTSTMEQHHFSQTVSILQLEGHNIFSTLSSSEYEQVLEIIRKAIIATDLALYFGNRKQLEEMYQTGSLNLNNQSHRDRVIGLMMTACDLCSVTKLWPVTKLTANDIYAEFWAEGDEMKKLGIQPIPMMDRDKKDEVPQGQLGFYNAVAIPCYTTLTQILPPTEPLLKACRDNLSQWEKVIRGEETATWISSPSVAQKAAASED
The human PDE10A full length assay was performed in 96-well micro titer plates. The reaction mixture of 50 μl contained 20 mM HEPES pH=7.5/10 mM MgCl2/0.05 mg/ml BSA (Sigma cat. # A-7906), 50 nM cGMP (Sigma, cat. # G6129) and 50 nM [3H]-cGMP (GE Healthcare, cat. # TRK392 S.A. 13.2 Ci/mmol), 3.75 ng/well PDE10A enzyme (Enzo Life Science, Lausen, Switzerland cat # SE-534) with or without a specific test compound. A range of concentrations of the potential inhibitor was used to generate data for calculating the concentration of inhibitor resulting in 50% of the effect (e.g. IC50, the concentration of the competitor inhibiting PDE10A activity by 50%). Non-specific activity was tested without the enzyme. The reaction was initiated by the addition of the substrate solution (cGMP and [3H]-cGMP) and allowed to progress for 20 minutes at room temperature. The reaction was terminated by adding 25 μl of YSi-SPA scintillation beads (GE Healthcare, cat. # RPNQ0150) in 18 mM zinc sulphate solution (stop reagent). After 1 h under shaking, the plate was centrifuged one minute at 170 g to allow beads to settle. Afterwards, radioactive counts were measured on a Perkin Elmer Top-Count Scintillation plate reader.
For the compound `Cc1c(Cl)cc(O)c2nc(CCc3nc(N4CCCC4)nn3C)nn12` [Example 85, 6-Chloro-5-methyl-2-(2-(1-methyl-3-(pyrrolidin-1-yl)-1H-1,2,4-triazol-5-yl)ethyl)-[1,2,4]triazolo[1,5-a]pyridin-8-ol], half-maximal inhibition (IC50) was put at 4.22 nM.
Under `Cn1nc(N2CCCC2)nc1CCc1nc2cc(C(F)(F)F)ccn2n1` [Example 66, 2-(2-(1-Methyl-3-(pyrrolidin-1-yl)-1H-1,2,4-triazol-5-yl)ethyl)-7-(trifluoromethyl)-[1,2,4]triazolo[1,5-a]pyridine] stands 331 nM.
For the compound `Cc1ncc(C)n2nc(CCc3nc(N4CC[C@H](F)C4)nn3C)nc12` [Example 94, 2-{2-[5-((S)-3-Fluoro-pyrrolidin-1-yl)-2-methyl-2H-[1,2,4]triazol-3-yl]-ethyl}-5,8-dimethyl-[1,2,4]triazolo[1,5-a]pyrazin], the IC50 (usually the concentration at which inhibition is half-maximal) was determined as 122 nM.
Under `Cc1nc2ccccc2nc1CCc1nc(N2CCCC2)nn1C` [Example 16, 2-Methyl-3-[2-(2-methyl-5-pyrrolidin-1-yl-2H-[1,2,4]triazol-3-yl)-ethyl]-quinoxaline] stands 61.4 nM; under `Cc1ncc(C)n2nc(CCc3nc(N4CCC[C@H]4C)nn3C)nc12` [Example 101, 5,8-Dimethyl-2-{2-[2-methyl-5-((R)-2-methyl-pyrrolidin-1-yl)-2H-[1,2,4]triazol-3-yl]-ethyl}-[1,2,4]triazolo[1,5-a]pyrazine], 57.6 nM.
In the case of `Cc1ccn2nc(CCc3nc(N4CCCC4)nn3C)nc2c1[N+](=O)[O-]` [Example 55, 7-Methyl-2-(2-(1-methyl-3-(pyrrolidin-1-yl)-1H-1,2,4-triazol-5-yl)ethyl)-8-nitro-[1,2,4]triazolo[1,5-a]pyridine], the IC50 worked out at 94.7 nM.
As for `Cc1ncc(C)n2nc(/C=C/c3nc(N(C)CC4CC4)nn3C)nc12` [Example 97, Cyclopropylmethyl-{5-[(E)-2-(5,8-dimethyl-[1,2,4]triazolo[1,5-a]pyrazin-2-yl)-vinyl]-1-methyl-1H-[1,2,4]triazol-3-yl}-methyl-amine], the IC50 was determined as 79.3 nM.
For the compound `CCN(c1nc(CCc2nc3c(C)ncc(C)n3n2)n(C)n1)C1CC1` [Example 60, Cyclopropyl-{5-[2-(5,8-dimethyl-[1,2,4]triazolo[1,5-a]pyrazin-2-yl)-ethyl]-1-methyl-1H-[1,2,4]triazol-3-yl}-ethyl-amine], the IC50 is 186 nM.
Compound `Cc1c(Cl)cc(S(C)(=O)=O)c2nc(CCc3nc(N4CCCC4)nn3C)nn12` [Example 73, 6-Chloro-8-methanesulfonyl-5-methyl-2-[2-(2-methyl-5-pyrrolidin-1-yl-2H-[1,2,4]triazol-3-yl)-ethyl]-[1,2,4]triazolo[1,5-a]pyridine] yielded an IC50 of 86.9 nM.
Next, `Cc1c(Cl)cc(C(F)F)c2nc(CCc3nc(N4CCCC4)nn3C)nn12` [Example 130, 6-Chloro-8-(difluoromethyl)-5-methyl-2-(2-(1-methyl-3-(pyrrolidin-1-yl)-1H-1,2,4-triazol-5-yl)ethyl)-[1,2,4]triazolo[1,5-a]pyridine]: 0.89 nM; `COc1ccc(Cn2nc(N3CCCC3)nc2CCc2nc3c(C)ncc(C)n3n2)cc1` [Example 20, 2-{2-[2-(4-Methoxy-benzyl)-5-pyrrolidin-1-yl-2H-[1,2,4]triazol-3-yl]-ethyl}-5,8-dimethyl-[1,2,4]triazolo[1,5-a]pyrazine]: 5 nM.
Next, `Cc1ncc(C)n2nc(CCc3nc(N4CCCC4)nn3CC3CC3)nc12` [Example 117a, 2-[2-(2-Cyclopropylmethyl-5-pyrrolidin-1-yl-2H-[1,2,4]triazol-3-yl)-ethyl]-5,8-dimethyl-[1,2,4]triazolo[1,5-a]pyrazine]: 1.32 nM; `Cc1ncc(C)n2nc(CCc3nc(N4CCCC4)nn3CC(F)F)nc12` [Example 110, 2-{2-[2-(2,2-Difluoro-ethyl)-5-pyrrolidin-1-yl-2H-[1,2,4]triazol-3-yl]-ethyl}-5,8-dimethyl-[1,2,4]triazolo[1,5-a]pyrazine]: 3.25 nM.
